ChEMBL document CHEMBL5604062, “ASAP - ZIKV NS2B-NS3 protease fluorescence dose response” (2024)
pIC50: −log10 of the molar value. Several values for one entry are separate records, joined by “and”; a condition that tells them apart may be missing. Identical values can stand only once.

Target: Nonstructural protein 3 (Zika virus, UniProt A0A024AXB9)
Test: Functional biochemical assay to identify treatments for viral infectious disease that targets Zika NS2B-NS3 protease. Utilizing a direct enzyme activity measurement method, reading the fluorescence intensity is used to characterize the relative potency of inhibitors as IC50.
Design: species or system PRVABC59

Chain of Nonstructural protein 3 (A0A024AXB9 whole entry): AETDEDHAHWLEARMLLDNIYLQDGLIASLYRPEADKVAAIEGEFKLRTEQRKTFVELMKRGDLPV

| pIC50 | Structure (SMILES) |
| --- | --- |
| < 4.00 | Cc1c(C(=O)Nc2cc(-c3cnn(C)c3)ccn2)cc(C2CC2)n1C |
| < 4.60 | O=C(Nc1cc(-c2cccnc2)ccn1)c1ccc(C2CC2)cc1 |
| 4.36 | Cc1ccc(OCc2ccccc2Cl)c(C(=O)Nc2cccc(CN)c2)c1 |
| 4.64 | O=C(Nc1cc(Cl)cc([C@H]2C[C@@H]2c2ccc3c(c2)CNC3)c1)OCc1ccccc1 |
| < 4.00 | Clc1ccc2nc(C3CCOCC3)n(Cc3ccc4c(c3)CNC4)c2c1 |
| < 4.60 | O=C1CCCc2cc(C(=O)Nc3ccc4c(c3)CNC4)ccc2N1 |
| < 4.60 | O=C(Nc1cc([C@H]2CCOC2)ccn1)c1cc(F)cc2[nH]ncc12 |
| < 4.00 | CC(C)N1C(=O)C[C@H](C(=O)Nc2cccc(CN)c2)[C@H]1c1ccc(Cl)c(F)c1 |
| < 4.60 | Cc1c(C(=O)Nc2cc3c(cn2)OCC3)cc(C2CC2)n1C |
| < 4.00 | COc1c(C(N)=O)cc(Cl)cc1S(=O)(=O)Nc1cccc(-c2nnn[nH]2)c1 |
| 4.61 | O=C(Nc1ccc2c(c1)CNC2)c1cc2ccccc2[nH]1 |
| 7.15 and 7.28 | O=C(NC[C@H]1CCCO1)[C@H](Nc1ccc2c(c1)CNC2)c1cc(Cl)cc(C2CC2)c1 |
| < 4.60 | C[C@H]1C[C@H]1c1cc(C(=O)Nc2cc(-c3cccnc3)ccn2)no1 |
| < 4.60 | O=C(Nc1ccc2c(c1)CNC2)c1nc(Cl)nc2[nH]ccc12 |
| 4.60 | O=C(Nc1ccc2c(c1)CNC2)c1ccccc1-n1cccc1 |
| 5.81 | N#C[C@]1(Nc2ccc3c(c2)CNC3)C(=O)Nc2ccc(Cl)cc21 |
| 4.07 | NCc1cccc(NC(=O)c2cc(C(F)(F)F)ccc2SC2CCCC2)c1 |
| 4.85 | CC(C)c1nc2c(C(=O)Nc3cccc(CN)c3)cccc2[nH]1 |
| < 4.60 | CC(C)(O)c1cncc(NC(=O)c2cccc3c2CC(=O)N3)c1 |
| < 4.60 | CN1C(=O)Cc2cc(C(=O)Nc3ccc4c(c3)CNC4)ccc21 |
| < 4.00 | CN1CCc2nc(NC(=O)c3cc(Cl)cc(NC(=O)OCc4ccccc4)c3)sc2C1 |
| < 4.60 | COc1ccc([C@H]2C[C@H](C)CN2C(=O)Nc2ccc3c(c2)CNC3)cc1 |

| pIC50 | Structure (SMILES) |
| --- | --- |
| < 4.60 | Cc1c(C(=O)Nc2cccc(-c3cncnc3O)c2)cc(C2CC2)n1C |
| 5.99 | Clc1cc([C@H](C#Cc2ccccc2)Nc2ccc3c(c2)CNC3)c2cn[nH]c2c1 |
| < 4.60 | CCCN1C(=O)[C@](Nc2ccc3c(c2)CNC3)(C(=O)NC)c2cc(Cl)ccc21 |
| < 4.00 | NCc1cccc(NC(=O)c2cc(C(F)(F)F)cnc2N2CCOCC2)c1 |
| 4.59 | CN(C)CCOc1ccc(Cl)cc1C(=O)Nc1cccc(CN)c1 |
| < 4.00 | N#C[C@]1(Nc2cccc(-c3nn[nH]n3)c2)C(=O)Nc2ccc(Cl)cc21 |
| < 4.60 | O=C(Nc1ccc2c(c1)CNC2)c1cc(F)c2[nH]nnc2c1 |
| < 4.00 | O=C1NCc2ccc(NC(=O)c3cc(Cl)cc4[nH]ncc34)cc21 |
| < 4.00 | NCc1cccc(NC(=O)c2nc(=O)cc(NC(=O)OCc3ccccc3)[nH]2)c1 |
| 7.07 and 7.19 | Cn1cc(CNC(=O)[C@H](Nc2ccc3c(c2)CNC3)c2cc(Cl)cc(C3CC3)c2)cn1 |
| < 4.00 | O=C(Nc1cc(Cl)cc(C(=O)NC[C@@]23CC[C@H](CNC2)C3)c1)OCc1ccccc1 |
| < 4.00 | COC(=O)c1ccc2[nH]cc(Cc3ccc(-c4nnn[nH]4)cc3)c2c1 |
| < 4.60 | Cc1c(C(=O)Nc2cc(C(N)=O)ccn2)cc(C2CC2)n1C |
| < 4.00 | O=C(O)c1cc(Cl)ccc1S(=O)(=O)Nc1ccc(N2CCCCC2)c(F)c1 |
| 4.80 | O=C(Nc1cc(Cl)cc(C(=O)Nc2ccc(N3CCNCC3)c(F)c2)c1)OCc1ccccc1 |
| 7.19 and 7.39 | O=C(Nc1cc2c(c(C3=CC[C@H](O)CC3)c1)CNC2)c1cc(Cl)cc2[nH]ncc12 |
| < 4.00 | O=C(Nc1cccc(-n2nn[nH]c2=O)c1)c1cc(Cl)cc(N2CCCC2=O)c1 |
| 6.87 | O=C(Nc1ccc2c(c1)CNC2)c1cc(Cl)cc2c1cnn2C[C@H]1CCCO1 |
| 5.21 | O=C1COc2cc(C(=O)Nc3ccc4c(c3)CNC4)ccc2N1 |
| < 4.00 | CCc1cc(F)ccc1CC(=O)N1CCCc2cc(CCN)ccc21 |
| 6.27 | O=C(Nc1ccc2c(c1)CNC2)c1cc(Cl)cc2nn(C3COC3)cc12 |
| < 4.60 | C[C@H](NC(=O)c1cccc2c1CC(=O)N2)c1cc2cnccc2o1 |

Continued, compound first:

| Structure (SMILES) | pIC50 |
| --- | --- |
| O=Cc1ccc(N2CCC(C(=O)NCCc3ccc(O)c(O)c3)CC2)cc1 | 4.25 |
| COc1cnccc1NC(=O)c1cccn(CC(C)C)c1=O | < 4.00 |
| NCc1cccc(NC(=O)[C@@H](NC(=O)OCc2ccccc2)c2ccc(-c3cncnc3)cc2)c1 | < 4.00 |
| O=C(c1cc(Cl)cc2[nH]ncc12)N1CC[C@]2(CCNC2)C1 | < 4.00 |
| CCn1cc(-c2cn(C)nc2C)nc(N2CC[C@@H](CO)C2)c1=O | < 4.00 |
| CN1CCC(COc2ccc([C@@H](NC(=O)OCc3ccccc3)C(=O)Nc3cccc(CN)c3)cc2)CC1 | 4.08 |
| CN1CCN(Cc2ccccc2CNC(=O)[C@@H](NC(=O)OCc2ccccc2)c2ccc(OCc3ccccc3)cc2)CC1 | < 4.00 |
| COc1ncccc1-c1ccc([C@@H](NC(=O)OCc2ccccc2)C(=O)Nc2cccc(CN)c2)cc1 | 4.75 |
| O=C(O)c1cc(Cl)ccc1S(=O)(=O)NC1CCN(S(=O)(=O)c2ccc(I)cc2)CC1 | < 4.00 |
| O=C(O)c1cc(Cl)ccc1S(=O)(=O)N[C@H]1CC[C@@H](Oc2ccccc2)CC1 | < 4.00 |
| Cc1nc(C2CC2)[nH]c1C(=O)Nc1cc(CCCN)ccn1 | < 4.60 |
| COC[C@@H](C)CNC(=O)c1cc(Cl)ccc1NS(=O)(=O)c1ccc(Oc2ccccc2Cl)cc1 | < 4.00 |
| CCn1c(=O)c(N2CC[C@H](CO)C2)nc2cc(C(N)=O)ccc21 | < 4.00 |
| NCc1cccc(NC(=O)[C@@H](NC(=O)OCc2ccccc2)c2cc(F)cc(F)c2)c1 | < 4.00 |
| CC(C)CNC(=O)c1cc(Cl)ccc1NS(=O)(=O)c1ccc(Oc2ccccc2Cl)cc1 | 4.46 |
| COc1cc(Cl)cc(C(=O)O)c1NS(=O)(=O)c1ccc(Oc2ccccc2Cl)cc1 | 4.36 |
| CN(C)Cc1csc(NC(=O)[C@@H](NC(=O)OCc2ccccc2)c2ccc(OCc3ccccc3)cc2)n1 | < 4.00 |
| CCOCC(=O)N[C@H](C(=O)Nc1cccc(CN)c1)c1ccc(OCc2ccccc2)cc1 | < 4.00 |
| Cc1ccc(CNC(=O)[C@@H](NC(=O)OCc2ccccc2)c2ccc(OCc3ccccc3)cc2)cn1 | < 4.00 |
| Cc1nc(C2(NC(=O)c3cccc4c3CC(=O)N4)CCC2)no1 | < 4.60 |

| Structure (SMILES) | pIC50 |
| --- | --- |
| CCn1c(=O)c(N2CC[C@H](CO)C2)nc2cc(C(=O)O)ccc21 | < 4.00 |
| C[C@](O)(Cc1cc(Cl)cc(NC(=O)OCc2ccccc2)c1)c1cccc(CN)c1 | < 4.00 |
| CNC(=O)C(=O)/C=C/c1ccccc1C | < 3.70 |
| NCc1cccc(NC(=O)C[C@@H](NC(=O)OCc2ccccc2)C2CCCCC2)c1 | < 4.00 and 4.25 |
| O=C(Nc1ccc2c(c1)CNC2)c1ccc2c(C3=CCNCC3)csc2c1 | 6.30 and 6.27 |
| NCc1cccc(NC(=O)[C@@H](NC(=O)OCc2ccccc2)c2ccc(OCc3ccncc3)cc2)c1 | 4.05 |
| CS(=O)(=O)c1ccc(-c2cccc([C@H](NC(=O)OCc3ccccc3)C(=O)Nc3cccc(CN)c3)c2)cn1 | < 4.00 |
| CC(C)(CO)CN1CC[C@H](c2c[nH]c3ccccc23)C1 | < 4.00 |
| COc1cc(Cc2ccnc(N3CCNCC3)c2)nc(N2CCNCC2)n1 | < 4.00 |
| C[C@H]1CC[C@H](CS(=O)(=O)N[C@H](C(=O)Nc2cccc(CN)c2)c2ccc(OCc3ccccc3)cc2)CC1 | 4.81 |
| CS(=O)(=O)NCc1cccc(CNC(=O)[C@@H](NC(=O)OCc2ccccc2)c2ccc(OCc3ccccc3)cc2)c1 | < 4.00 |
| O=C(Nc1cc(Cl)cc(C(=O)N2CCC(C(=O)O)CC2)c1)OCc1ccccc1 | < 4.00 |
| NCc1cccc(NC(=O)[C@@H](NC(=O)OCc2ccccc2)c2ccc(-c3ccc(N)nc3)cc2)c1 | 4.14 |
| Cn1cc(CN2CCC(c3c[nH]c4cccnc34)CC2)c2ccccc21 | < 4.00 |
| CCn1c(=O)c(N2CC[C@@]3(COC(=O)N3)C2)nc2ccccc21 | < 4.00 |
| CCn1c(=O)c(N2CCC[C@H]2CN2CCCC2)nc2ccccc21 | < 4.00 |
| O=c1[nH]c2cccc(N3CCN(Cc4c[nH]c5ccccc45)CC3)c2[nH]1 | < 4.00 |
| NCc1cccc(NC(=O)[C@@H]2C[C@H](NC(=O)OCc3ccccc3)[C@H]3C[C@H]32)c1 | < 4.00 |
| Cn1nc(C2CCN(C(=O)c3ccccc3CSc3nnc[nH]3)CC2)cc1O | < 4.00 |
| Cc1c(C(=O)Nc2cc(C(=O)N3CC[C@H](O)C3)ccn2)cc(C2CC2)n1C | < 4.60 |

| Structure (SMILES) | pIC50 |
| --- | --- |
| NCCCOc1cc(-c2ccc(N)nc2)cc2c1COB2O | < 4.00 |
| N=C(N)Nc1ccc(OC(=O)Nc2ccccc2)cc1 | < 4.00 |
| c1ccc(CC2CCN(Cc3c[nH]c4ccccc34)CC2)cc1 | 4.05 |
| NCc1cccc(NC(=O)[C@H]2Cc3ccccc3N2C(=O)OCc2ccccc2)c1 | < 4.00 |
| O=C(O)c1nccn2ncc(Cc3c[nH]c4ccc(Cl)cc34)c12 | < 4.00 |
| O=C(Nc1cc(Cl)cc(C(=O)N[C@H]2CCCC[C@@H]2C(=O)O)c1)OCc1ccccc1 | < 4.00 |
| CCOCC(=O)N1CCC([C@H](NC(=O)OCc2ccccc2)C(=O)Nc2cccc(CN)c2)CC1 | < 4.00 |
| NCc1cccc([C@H]2C[C@@H]2c2cc(Cl)cc(NC(=O)OCc3ccccc3)c2)c1 | 5.13 and 5.22 |
| [O-][S@@+](Cc1nc(-c2cccs2)no1)c1cccs1 | < 4.00 |
| CCn1cc(Cl)nc(N2CC[C@@H](CO)C2)c1=O | < 4.00 |
| O=S(=O)(c1cccnc1)N1CCN(Cc2c[nH]c3ccccc23)CC1 | < 4.00 |
| O=C(O)c1cc2c(cc1NS(=O)(=O)c1ccc(Oc3ccccc3Cl)cc1)CCC2 | 4.76 |
| O=C(O)Cc1cn2nc(-c3cc(Cl)cc(NC(=O)OCc4ccccc4)c3)ccc2n1 | < 4.00 |
| O=C(O)c1cc(Cl)ccc1NS(=O)(=O)c1ccc(N[C@H]2CCCOC2)nc1 | < 4.00 |
| COc1cc(N[C@@H](C(=O)N2CCc3ccc(OC(F)(F)F)cc32)c2ccc(Cl)cc2)cc(OCCCC(=O)O)c1 | 4.69 |
| Brc1cccc2cn(Cc3ncccn3)nc12 | < 4.00 |
| NC(=O)[C@H](c1c[nH]c2ccccc12)N1CCC(c2cnc3ccc[nH]c2-3)CC1 | 4.02 |
| Cn1nc(NC(=O)[C@@H](NC(=O)OCc2ccccc2)c2ccc(OCc3ccccc3)cc2)c2c1CNC2 | < 4.00 |
| CN(C)CC[C@H](NC(=O)c1cc(Cl)cc(NC(=O)OCc2ccccc2)c1)c1ccccc1 | < 4.00 |
